Laboratory results taken from patent EP1144368B1, “ACETYLENIC ALPHA-AMINO ACID-BASED SULFONAMIDE HYDROXAMIC ACID TACE INHIBITORS” (priority 1999, dated 2000).

These molecules were tested on THP-1 cells (assay: THP-1 Soluble Protein Assay (LPS-stimulated; ELISA of TNF-a, TNF-R p75/80, TNF-R p55/60, IL-8)). Conditions: Homo sapiens, THP-1, 3 µM; read-out: THP % Inhibition @ 3µM.
Format: cell-based, human
Procedure: Each vial of cells are cultured for about two weeks prior to being used for an assay and then are used for only 4 to 6 weeks to screen compounds.
Plates are placed into an incubator set at 5% CO2 and at 37° C. After 4 hours of incubation, 300 ml/well of tissue culture supernatant (TCS) is removed for use in an TNF-a ELISA.
Percent change in each soluble protein evaluated from the "vehicle positive control" was calculated for each compound concentration with the following formula: % Change =(pg/ml (compound) - pg/ml (veh pos control))/(pg/ml (veh pos control) - pg/ml (veh neg control))x 100 [formula]
For the soluble protein (TNF-a, p75/80, p55/60, IL-8) studies under stimulated conditions, the mean pg/ml of duplicate wells were determined and the results expressed as percent change from "vehicle positive control".

| Compound | inhibition at 3 µM |
| --- | --- |
| CC#CCOc1ccc(S(=O)(=O)N2CCCSC(C)(C)[C@@H]2C(=O)NO)cc1 [Example 173] | 80% |
| CC#CCOc1ccc(S(=O)(=O)N2CCCSC[C@@H]2C(=O)NO)cc1 [Example 174] | 80% |
| CC#CCOc1ccc(S(=O)(=O)N2CCCS(=O)(=O)C[C@@H]2C(=O)NO)cc1 [Example 175] | 83% |

Same assay, conditions: Homo sapiens, THP-1, read-out: THP % inhibition @ 3 µM, 3 µM

| Compound | inhibition at 3 µM |
| --- | --- |
| CC#CCOc1ccc(S(=O)(=O)N(C)C(C(=O)NO)C(C)(C)SCCn2ccnc2)cc1 (stereo not drawn) [Example 144, 2-({[4-(2-Butynyloxy)phenyl]sulfonyl)(methyl)amino]-N-hydroxy-3-methyl-3-{[2-(1H-imidazol-1-yl)ethyl]sulfanyl}butanamide] | 89% |
| CC#CCOc1ccc(S(=O)(=O)N(C)C(C(=O)NO)C(C)(C)SCCCN2CCOCC2)cc1 (stereo not drawn) [Example 146] | 84% |
| CC#CCOc1ccc(S(=O)(=O)N(C)C(C(=O)NO)C(C)(C)SCCCN2CCN(C)CC2)cc1 (stereo not drawn) [Example 147, 2-({[4-(2-Butynyloxy)phenyl]sulfonyl)(methyl)amino]-N-hydroxy-3-methyl-3-{[2(4-methyl-1-ethyl-1-piperazinyl)propyl]sulfanyl}butanamide] | 89% |
| CC#CCOc1ccc(S(=O)(=O)N(C)C(C(=O)NO)C(C)(C)SC)cc1 (stereo not drawn) [Example 149, 2-[(4-But-2-ynyloxy-benenesulfonyl)-methyl-amino]-N-hydroxy-3-methyl-3-methylsulfanyl-butyramide] | 88% |
| CC#CCOc1ccc(S(=O)(=O)N(C)C(C(=O)NO)C(C)(C)SCCC)cc1 (stereo not drawn) [Example 151, 2-[(4-But-2-ynyloxy-benenesulfonyl)-methyl-amino]-N-hydroxy-3-methyl-3-propylsulfanyl-butyramide] | 82% |
| CC#CCOc1ccc(S(=O)(=O)N(C)C(C(=O)NO)C(C)(C)SCc2ccccc2)cc1 (stereo not drawn) [Example 153, 2-[(4-But-2-ynyloxy-benenesulfonyl)-methyl-amino]-N-hydroxy-3-methyl-3-benzylsulfanyl-butyramide] | 46% |
| CC#CCOc1ccc(S(=O)(=O)N(C)[C@H](CSC)C(=O)NO)cc1 [Example 154] | 90% |
| CC#CCOc1ccc(S(=O)(=O)N(Cc2cccnc2)C(CSCc2ccccc2)C(=O)NO)cc1 (stereo not drawn) [Example 157, 3-(Benzylthio)-2-[[[4-(2-butynyloxy)phenyl]sulfonyl]pyridin-3-ylmethylamino]-N-hydroxypropanamide] | 79% |
| CC#CCOc1ccc(S(=O)(=O)NC(C(=O)NO)c2ccc(O)cc2)cc1 (stereo not drawn) [Example 176, 2-({[4-(2-Butynyloxy)phenyl]sulfonyl}amino)-N-hydroxy-2-(4-hydroxyphenyl)acetamide] | 89% |
| C#CCOc1ccc(C(NS(=O)(=O)c2ccc(OCC#CC)cc2)C(=O)NO)cc1 (stereo not drawn) [Example 177, 2-({[4-(2-Butynyloxy)phenyl]sulfonyl}amino)-N-hydroxy-2-[4-(2-propynyloxy)phenyl]acetamide] | 64% |
| CC#CCOc1ccc(S(=O)(=O)N(C)C(C(=O)NO)c2ccc(OC)cc2)cc1 (stereo not drawn) [Example 178, 2-[{[4-(2-Butynyloxy)phenyl]sulfonyl}(methyl)amino]-N-hydroxy-2-(4-methoxyphenyl)acetamide] | 91% |
| CC#CCOc1ccc(S(=O)(=O)N(C)C(C(=O)NO)c2ccc(OCCN3CCOCC3)cc2)cc1 (stereo not drawn) [Example 179, 2-[{[4-(2-Butynyloxy)phenyl]sulfonyl}(methyl)amino]-N-hydroxy-2-{4-[2-(4-morpholinyl)ethoxy]phenyl}acetamide] | 97% |
| CC#CCOc1ccc(S(=O)(=O)N(C)C(C(=O)NO)c2ccc(OCCNC(=O)OC(C)(C)C)cc2)cc1 (stereo not drawn) [Example 180, tert-Butyl 2-{4-[1-[{[4-(2-butynyloxy)phenyl]sulfonyl}(methyl)amino]-2-(hydroxyamino)-2-oxoethyl]phenoxy}ethylcarbamate] | 89% |
| CC#CCOc1ccc(S(=O)(=O)N(C)C(C(=O)NO)c2ccc(OCCN)cc2)cc1 (stereo not drawn) [Example 181, 2-[4-(2-Aminoethoxy)phenyl]-2-[{[4-(2-butynyloxy)phenyl]sulfonyl}(methyl)amino]-N-hydroxyacetamide] | 92% |
| CC#CCOc1ccc(S(=O)(=O)N(C)C(C(=O)NO)c2ccc(OCCN(C)C)cc2)cc1 (stereo not drawn) [Example 182, 2-[{[4-(2-Butynyloxy)phenyl]sulfonyl}(methyl)amino]-2-{4-[2-(dimethylamino)ethoxy]phenyl}-N-hydroxyacetamide] | 92% |
| CC#CCOc1ccc(S(=O)(=O)N(C)C(C(=O)NO)c2ccc(OCCN3CCCC3)cc2)cc1 (stereo not drawn) [Example 183, 2-[{[4-(2-Butynyloxy)phenyl]sulfonyl}(methyl)amino]-N-hydroxy-2-{4-[2-(1-pyrrolidinyl)ethoxy]phenyl}acetamide] | 93% |
| CC#CCOc1ccc(S(=O)(=O)N(C)C(C(=O)NO)c2ccc(OCCN3CCCC3=O)cc2)cc1 (stereo not drawn) [Example 184, 2-[{[4-(2-Butynyloxy)phenyl]sulfonyl}(methyl)amino]-N-hydroxy-2-{4-[2-(2-oxo-1-pyrrolidinyl)ethoxy]phenyl}acetamide] | 94% |

| Compound | inhibition at 3 µM |
| --- | --- |
| CC#CCOc1ccc(S(=O)(=O)N(C)C(C(=O)NO)c2ccc(OCCN3CCN(C(=O)OC(C)(C)C)CC3)cc2)cc1 (stereo not drawn) [Example 185, tert-butyl 4-(2-{4-[1-[{[4-(2-butynyloxy)phenyl]sulfonyl}(methyl)amino]-2-(hydroxyamino)-2-oxoethyl]phenoxy}ethyl)-1-piperazinecarboxylate] | 89% |
| CC#CCOc1ccc(S(=O)(=O)N(C)C(C(=O)NO)c2ccc(OCCN3CCNCC3)cc2)cc1 (stereo not drawn) [Example 186, 2-[{[4-(2-butynyloxy)phenyl]sulfonyl}(methyl)amino]-N-hydroxy-2-{4-[2-(1-piperazinyl)ethoxy]phenyl}acetamide] | 93% |
| CC#CCOc1ccc(S(=O)(=O)N(C)C(C(=O)NO)c2ccc(OCCCNC(=O)OC(C)(C)C)cc2)cc1 (stereo not drawn) [Example 187, tert-Butyl 3-{4-[1-[{[4-(2-butynyloxy)phenyl]sulfonyl}(methyl)amino]-2-(hydroxyamino)-2-oxoethyl]phenoxy}propylcarbamate] | 91% |
| CC#CCOc1ccc(S(=O)(=O)N(C)C(C(=O)NO)c2ccc(OCCCN)cc2)cc1 (stereo not drawn) [Example 188, 2-[4-(3-Aminopropoxy)phenyl]-2-[{[4-(2-butynyloxy)phenyl]sulfonyl}(methyl)amino]-N-hydroxyacetamide] | 94% |
| CC#CCOc1ccc(S(=O)(=O)N(C)[C@@H](C(=O)NO)c2ccc(O[C@H]3CCN(C(=O)OC(C)(C)C)C3)cc2)cc1 [Example 189, tert-Butyl (3S)-3-{4-[(1R)-1-[{[4-(2-butynyloxy)phenyl]sulfonyl}(methyl)amino]-2-(hydroxyamino)-2-oxoethyl]phenoxy}-1-pyrrolidinecarboxylate] | 92% |
| CC#CCOc1ccc(S(=O)(=O)N(C)[C@@H](C(=O)NO)c2ccc(O[C@H]3CCNC3)cc2)cc1 [Example 190, (2R)-2-[{[4-(2-Butynyloxy)phenyl]sulfonyl}(methyl)amino]-N-hydroxy-2-{4-[(3S)-pyrrolidinyloxy]phenyl}ethanamide] | 94% |
| CC#CCOc1ccc(S(=O)(=O)N(C)C(C(=O)NO)c2ccc(OCCN(C)C(=O)OC(C)(C)C)cc2)cc1 (stereo not drawn) [Example 191] | 90% |
| CC#CCOc1ccc(S(=O)(=O)N(C)C(C(=O)NO)c2ccc(OCCNC)cc2)cc1 (stereo not drawn) [Example 192, 2-({[4-(2-Butynyloxy)phenyl]sulfonyl}(methyl)amino)-N-hydroxy-2-{4-[2-(methylamino)ethoxy]phenyl}acetamide] | 95% |
| CC#CCOc1ccc(S(=O)(=O)N(C)C(C(=O)NO)c2ccc(OCCCNC(=O)OCC)cc2)cc1 (stereo not drawn) [Example 193, Ethyl 3-{4-[1-[{[4-(2-butynyloxy)phenyl]sulfonyl}(methyl)amino]-2-(hydroxyamino)-2-oxoethyl]phenoxy}propylcarbamate] | 91% |
| CC#CCOc1ccc(S(=O)(=O)N(C)C(C(=O)NO)c2ccc(OCCCNC(C)=O)cc2)cc1 (stereo not drawn) [Example 194, 2-{4-[3-(Acetylamino)propoxy]phenyl}-2-[{[4-(2-butynyloxy)phenyl]sulfonyl}(methyl)amino]-N-hydroxyacetamide] | 94% |
| CC#CCOc1ccc(S(=O)(=O)N(C)C(C(=O)NO)c2ccc(OCCCNC(=O)OCCCC)cc2)cc1 (stereo not drawn) [Example 195, Butyl 3-{4-[1-[{[4-(2-butynyloxy)phenyl]sulfonyl}(methyl)amino]-2-(hydroxyamino)-2-oxoethyl]phenoxy}propylcarbamate] | 90% |
| CC#CCOc1ccc(S(=O)(=O)N(C)C(C(=O)NO)c2ccc(OCCCNS(C)(=O)=O)cc2)cc1 (stereo not drawn) [Example 197, 2-[{[4-(2-Butynyloxy)phenyl]sulfonyl}(methyl)amino]-N-hydroxy-2-(4-{3-[(methylsulfonyl)amino]propoxy}phenyl)acetamide] | 94% |
| CC#CCOc1ccc(S(=O)(=O)N(C)C(C(=O)NO)c2ccc(OCCCNC(=O)Nc3ccccc3)cc2)cc1 (stereo not drawn) [Example 198, 2-(4-{3-[(Anilinocarbonyl)amino]propoxy}phenyl)-2-[{[4-(2-butynyloxy)phenyl]sulfonyl}(methyl)amino]-N-hydroxyacetamide] | 92% |
| CC#CCOc1ccc(S(=O)(=O)N[C@@H](C(=O)NO)c2ccc(OCCNC(=O)OC(C)(C)C)cc2)cc1 [Example 199, tert-Butyl 2-{4-[(1R)-1-({[4-(2-butynyloxy)phenyl]sulfonyl}amino)-2-(hydroxyamino)-2-oxoethyl]phenoxy}ethylcarbamate] | 84% |
| CC#CCOc1ccc(S(=O)(=O)N[C@@H](C(=O)NO)c2ccc(OCCN)cc2)cc1 [Example 200, (2R)-2-[4-(2-Aminoethoxy)phenyl]-2-({[4-(2-butynyloxy)phenyl]sulfonyl}amino)-N-hydroxyethanamide] | 78% |
| CC#CCOc1ccc(S(=O)(=O)N[C@@H](C(=O)NO)c2ccc(OCCNC(C)=O)cc2)cc1 [Example 201, (2R)-2-{4-[2-(Acetylamino)ethoxy]phenyl}-2-({[4-(2-butynyloxy)phenyl]sulfonyl}amino)-N-hydroxyethanamide] | 77% |
